{
  "source": "PubChem BioAssay (NCI)",
  "test_in_all_cases": "inhibition of tumour cell growth, NCI panel, 48 h",
  "key": {"[1]": {"tested_on": "786-0 renal"}, "[2]": {"tested_on": "A498 renal"}, "[3]": {"tested_on": "A549 NSCLC"}, "[4]": {"tested_on": "ACHN renal"}, "[5]": {"tested_on": "BT-549 breast"}, "[6]": {"tested_on": "CAKI-1 renal"}, "[7]": {"tested_on": "COLO 205 colon"}, "[8]": {"tested_on": "DU-145 prostate"}, "[9]": {"tested_on": "EKVX NSCLC"}, "[10]": {"tested_on": "HCC-2998 colon"}, "[11]": {"tested_on": "HCT-116 colon"}, "[12]": {"tested_on": "HCT-15 colon"}, "[13]": {"tested_on": "HL-60(TB) leukemia"}, "[14]": {"tested_on": "HOP-62 NSCLC"}, "[15]": {"tested_on": "HOP-92 NSCLC"}, "[16]": {"tested_on": "HS 578T breast"}, "[17]": {"tested_on": "HT29 colon"}, "[18]": {"tested_on": "IGROV1 ovarian"}, "[19]": {"tested_on": "K-562 leukemia"}, "[20]": {"tested_on": "KM12 colon"}, "[21]": {"tested_on": "LOX IMVI melanoma"}, "[22]": {"tested_on": "M14 melanoma"}, "[23]": {"tested_on": "MALME-3M melanoma"}, "[24]": {"tested_on": "MCF7 breast"}, "[25]": {"tested_on": "MDA-MB-231 breast"}, "[26]": {"tested_on": "MDA-MB-435"}, "[27]": {"tested_on": "MDA-N"}, "[28]": {"tested_on": "MOLT-4 leukemia"}, "[29]": {"tested_on": "NCI-H226 lung"}, "[30]": {"tested_on": "NCI-H23 lung"}, "[31]": {"tested_on": "NCI-H460 lung"}, "[32]": {"tested_on": "NCI-H522 lung"}, "[33]": {"tested_on": "NCI/ADR-RES ovarian"}, "[34]": {"tested_on": "OVCAR-3 ovarian"}, "[35]": {"tested_on": "OVCAR-4 ovarian"}, "[36]": {"tested_on": "OVCAR-5 ovarian"}, "[37]": {"tested_on": "OVCAR-8 ovarian"}, "[38]": {"tested_on": "PC-3 prostate"}, "[39]": {"tested_on": "RPMI-8226 leukemia"}, "[40]": {"tested_on": "RXF 393 renal"}, "[41]": {"tested_on": "SF-268 CNS"}, "[42]": {"tested_on": "SF-295 CNS"}, "[43]": {"tested_on": "SF-539 CNS"}, "[44]": {"tested_on": "SK-MEL-2 melanoma"}, "[45]": {"tested_on": "SK-MEL-28 melanoma"}, "[46]": {"tested_on": "SK-MEL-5 melanoma"}, "[47]": {"tested_on": "SK-OV-3 ovarian"}, "[48]": {"tested_on": "SN12C renal"}, "[49]": {"tested_on": "SNB-19 CNS"}, "[50]": {"tested_on": "SNB-75 CNS"}, "[51]": {"tested_on": "SR leukemia"}, "[52]": {"tested_on": "SW-620 colon"}, "[53]": {"tested_on": "T-47D breast"}, "[54]": {"tested_on": "TK-10 renal"}, "[55]": {"tested_on": "U251 CNS"}, "[56]": {"tested_on": "UACC-257 melanoma"}, "[57]": {"tested_on": "UACC-62 melanoma"}, "[58]": {"tested_on": "UO-31 renal"}},
  "note": "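Exposure lasted 48 hours, with cells grown in 96-well plates and compounds tested at five concentrations. TGI marks complete inhibition of growth.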",
  "data": [
    {"smiles": "COc1ccc(/[N+]([O-])=C/c2ccc(OC(=S)S)c(OC)c2)cc1", "values": [
      {"measurement": "TGI", "setting": "[1]", "result": "> 100", "unit": "µM"},
      {"measurement": "TGI", "setting": "[2]", "result": "> 100", "unit": "µM"},
      {"measurement": "TGI", "setting": "[3]", "result": "> 100", "unit": "µM"},
      {"measurement": "TGI", "setting": "[4]", "result": "> 100", "unit": "µM"},
      {"measurement": "TGI", "setting": "[5]", "result": 79.7, "unit": "µM"},
      {"measurement": "TGI", "setting": "[6]", "result": 66.7, "unit": "µM"},
      {"measurement": "TGI", "setting": "[7]", "result": "> 100", "unit": "µM"},
      {"measurement": "TGI", "setting": "[8]", "result": "> 100", "unit": "µM"},
      {"measurement": "TGI", "setting": "[9]", "result": "> 100", "unit": "µM"},
      {"measurement": "TGI", "setting": "[10]", "result": "> 100", "unit": "µM"},
      {"measurement": "TGI", "setting": "[11]", "result": "> 100", "unit": "µM"},
      {"measurement": "TGI", "setting": "[12]", "result": "> 100", "unit": "µM"},
      {"measurement": "TGI", "setting": "[13]", "result": 53.4, "unit": "µM"},
      {"measurement": "TGI", "setting": "[14]", "result": "> 100", "unit": "µM"},
      {"measurement": "TGI", "setting": "[15]", "result": 81, "unit": "µM"},
      {"measurement": "TGI", "setting": "[16]", "result": "> 100", "unit": "µM"},
      {"measurement": "TGI", "setting": "[17]", "result": "> 100", "unit": "µM"},
      {"measurement": "TGI", "setting": "[18]", "result": "> 100", "unit": "µM"},
      {"measurement": "TGI", "setting": "[19]", "result": "> 100", "unit": "µM"},
      {"measurement": "TGI", "setting": "[20]", "result": 33.3, "unit": "µM"},
      {"measurement": "TGI", "setting": "[21]", "result": "> 100", "unit": "µM"},
      {"measurement": "TGI", "setting": "[22]", "result": "> 100", "unit": "µM"},
      {"measurement": "TGI", "setting": "[23]", "result": "> 100", "unit": "µM"},
      {"measurement": "TGI", "setting": "[24]", "result": "> 100", "unit": "µM"},
      {"measurement": "TGI", "setting": "[25]", "result": "> 100", "unit": "µM"},
      {"measurement": "TGI", "setting": "[26]", "result": 61.1, "unit": "µM"},
      {"measurement": "TGI", "setting": "[27]", "result": "> 100", "unit": "µM"},
      {"measurement": "TGI", "setting": "[28]", "result": "> 100", "unit": "µM"},
      {"measurement": "TGI", "setting": "[29]", "result": "> 100", "unit": "µM"},
      {"measurement": "TGI", "setting": "[30]", "result": "> 100", "unit": "µM"},
      {"measurement": "TGI", "setting": "[31]", "result": "> 100", "unit": "µM"},
      {"measurement": "TGI", "setting": "[32]", "result": "> 100", "unit": "µM"},
      {"measurement": "TGI", "setting": "[33]", "result": 92.3, "unit": "µM"},
      {"measurement": "TGI", "setting": "[34]", "result": "> 100", "unit": "µM"},
      {"measurement": "TGI", "setting": "[35]", "result": 49, "unit": "µM"},
      {"measurement": "TGI", "setting": "[36]", "result": "> 100", "unit": "µM"},
      {"measurement": "TGI", "setting": "[37]", "result": "> 100", "unit": "µM"},
      {"measurement": "TGI", "setting": "[38]", "result": "> 100", "unit": "µM"},
      {"measurement": "TGI", "setting": "[39]", "result": "> 100", "unit": "µM"},
      {"measurement": "TGI", "setting": "[40]", "result": 50.9, "unit": "µM"},
      {"measurement": "TGI", "setting": "[41]", "result": "> 100", "unit": "µM"},
      {"measurement": "TGI", "setting": "[42]", "result": "> 100", "unit": "µM"},
      {"measurement": "TGI", "setting": "[43]", "result": "> 100", "unit": "µM"},
      {"measurement": "TGI", "setting": "[44]", "result": "> 100", "unit": "µM"},
      {"measurement": "TGI", "setting": "[45]", "result": "> 100", "unit": "µM"},
      {"measurement": "TGI", "setting": "[46]", "result": 93.2, "unit": "µM"},
      {"measurement": "TGI", "setting": "[47]", "result": "> 100", "unit": "µM"},
      {"measurement": "TGI", "setting": "[48]", "result": "> 100", "unit": "µM"},
      {"measurement": "TGI", "setting": "[49]", "result": "> 100", "unit": "µM"},
      {"measurement": "TGI", "setting": "[50]", "result": 51.1, "unit": "µM"},
      {"measurement": "TGI", "setting": "[51]", "result": 63.5, "unit": "µM"},
      {"measurement": "TGI", "setting": "[52]", "result": "> 100", "unit": "µM"},
      {"measurement": "TGI", "setting": "[53]", "result": 99.5, "unit": "µM"},
      {"measurement": "TGI", "setting": "[54]", "result": "> 100", "unit": "µM"},
      {"measurement": "TGI", "setting": "[55]", "result": "> 100", "unit": "µM"},
      {"measurement": "TGI", "setting": "[56]", "result": "> 100", "unit": "µM"},
      {"measurement": "TGI", "setting": "[57]", "result": "> 100", "unit": "µM"},
      {"measurement": "TGI", "setting": "[58]", "result": "> 100", "unit": "µM"}
    ]}
  ]
}
